Experimental data: ChEMBL document CHEMBL1944561, “Discovery and SAR exploration of a novel series of imidazo[4,5-b]pyrazin-2-ones as potent and selective mTOR kinase inhibitors” (Bioorg Med Chem Lett, 2011)

Key:
[1] = target: T1, Serine/threonine-protein kinase mTOR (Homo sapiens, UniProt P42345); test: Inhibition of mTOR
[2] = Metabolic stability in rat hepatocytes assessed as compound remaining after 60 mins; type: ADME, cell-based, Hepatocyte; conditions: read-out: Stability
[3] = target: Phosphatidylinositol 4,5-bisphosphate 3-kinase catalytic subunit alpha isoform (Homo sapiens, UniProt P42336); test: Inhibition of PI3Kalpha
PC-3 = test: Antiproliferative activity against human PC3 cells
[4] = target: T1, Serine/threonine-protein kinase mTOR; test: Inhibition of mTOR-mediated S6 phosphorylation in human PC3 cells; type: cell-based, PC-3
[5] = target: T1, Serine/threonine-protein kinase mTOR; test: Inhibition of mTOR-mediated Akt phosphorylation in human PC3 cells; type: cell-based, PC-3

Sequence of Phosphatidylinositol 4,5-bisphosphate 3-kinase catalytic subunit alpha isoform (P42336 whole entry, canonical isoform): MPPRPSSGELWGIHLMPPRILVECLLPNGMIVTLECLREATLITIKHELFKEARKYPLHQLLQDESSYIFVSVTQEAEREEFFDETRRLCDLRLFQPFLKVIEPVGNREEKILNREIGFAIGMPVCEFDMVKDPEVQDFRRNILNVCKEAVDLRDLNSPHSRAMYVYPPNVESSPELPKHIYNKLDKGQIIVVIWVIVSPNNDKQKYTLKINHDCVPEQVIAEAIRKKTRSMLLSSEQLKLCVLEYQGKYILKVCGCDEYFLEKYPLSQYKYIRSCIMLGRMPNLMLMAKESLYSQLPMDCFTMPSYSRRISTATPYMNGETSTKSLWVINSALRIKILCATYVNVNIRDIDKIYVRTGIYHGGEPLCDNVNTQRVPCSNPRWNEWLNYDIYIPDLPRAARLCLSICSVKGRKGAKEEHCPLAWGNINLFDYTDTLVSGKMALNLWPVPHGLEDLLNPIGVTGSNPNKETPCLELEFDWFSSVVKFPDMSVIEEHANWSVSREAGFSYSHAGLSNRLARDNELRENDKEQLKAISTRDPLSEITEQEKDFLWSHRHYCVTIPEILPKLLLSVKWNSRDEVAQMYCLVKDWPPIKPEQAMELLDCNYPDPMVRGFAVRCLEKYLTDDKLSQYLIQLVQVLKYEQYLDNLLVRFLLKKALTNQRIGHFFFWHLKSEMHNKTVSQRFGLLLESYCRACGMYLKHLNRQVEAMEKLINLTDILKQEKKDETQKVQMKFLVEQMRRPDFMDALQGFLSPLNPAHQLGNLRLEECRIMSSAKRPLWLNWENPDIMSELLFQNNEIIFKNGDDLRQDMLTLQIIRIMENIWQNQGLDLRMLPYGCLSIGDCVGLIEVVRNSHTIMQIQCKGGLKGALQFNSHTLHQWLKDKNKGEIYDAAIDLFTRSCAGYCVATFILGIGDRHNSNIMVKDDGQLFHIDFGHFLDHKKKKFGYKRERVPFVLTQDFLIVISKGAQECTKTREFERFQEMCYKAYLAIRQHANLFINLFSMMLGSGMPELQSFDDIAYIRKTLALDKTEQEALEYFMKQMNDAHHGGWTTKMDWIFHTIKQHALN

IC50 [1] [nM]	SMILES	other results
> 10000	O=c1[nH]c2ncc(-c3ccccc3)nc2n1CC1CCCCC1	
780	O=c1[nH]c2ncc(-c3ccc(O)cc3)nc2n1CC1CCCCC1	
1670	O=c1[nH]c2ncc(-c3ccc(O)cc3)nc2n1C1CCOCC1	
8300	NCc1ccc(-c2cnc3[nH]c(=O)n(CC4CCCCC4)c3n2)cc1	
1360	O=c1[nH]c2ncc(-c3ccc(-c4cnco4)cc3)nc2n1CC1CCCCC1	
60	O=c1[nH]c2ncc(-c3ccc(CO)cc3)nc2n1CC1CCCCC1	remaining at 1 h [2]: 8%; IC50 [3]: > 30 µM
190	O=c1[nH]c2ncc(-c3ccc4[nH]ncc4c3)nc2n1CC1CCCCC1	IC50 (PC-3): 2120 nM; IC50 [4]: 633 nM; IC50 [3]: 12.6 µM
2	Nc1nc2ccc(-c3cnc4[nH]c(=O)n(CC5CCCCC5)c4n3)cc2[nH]1	IC50 [5]: 92 nM; IC50 (PC-3): 566 nM; IC50 [4]: 201 nM
70	NC(=O)c1ccc(-c2cnc3[nH]c(=O)n(CC4CCCCC4)c3n2)cc1	IC50 [3]: > 30 µM
340	O=c1[nH]c2ncc(-c3ccc(O)cc3)nc2n1CC1CCOCC1	
10	Nc1nc2cc(-c3cnc4[nH]c(=O)n(CC5CCOCC5)c4n3)ccc2[nH]1	
390	O=c1[nH]c2ncc(-c3cnc4[nH]cnc4c3)nc2n1CC1CCOCC1	
130	O=C(O)c1ccc(-c2cnc3[nH]c(=O)n(CC4CCCCC4)c3n2)cc1	IC50 [3]: 23.5 µM
1020	CC(C)Cn1c(=O)[nH]c2ncc(-c3ccc(O)cc3)nc21	
9	O=c1[nH]c2ncc(-c3ccc(-c4nc[nH]n4)cc3)nc2n1CC1CCCCC1	
6	CNc1nc2cc(-c3cnc4[nH]c(=O)n(CC5CCOCC5)c4n3)ccc2[nH]1	IC50 (PC-3): > 5000 nM; IC50 [4]: > 5000 nM; IC50 [3]: > 30 µM
120	O=c1[nH]c2ncc(-c3ccc(-c4cn[nH]c4)cc3)nc2n1CC1CCCCC1	IC50 [3]: > 30 µM
3500	O=c1[nH]c2ncc(-c3ccc4cc[nH]c4c3)nc2n1CC1CCCCC1	

IC50 [1] [nM]	SMILES	other results
8900	CC(C)NC(=O)c1ccc(-c2cnc3[nH]c(=O)n(CC4CCCCC4)c3n2)cc1	
1040	CC(C)n1c(=O)[nH]c2ncc(-c3ccc(O)cc3)nc21	
63	O=c1[nH]c2ncc(-c3ccc4[nH]ccc4c3)nc2n1CC1CCCCC1	IC50 [3]: > 30 µM
178	NC(=O)[C@H]1CC[C@H](n2c(=O)[nH]c3ncc(-c4ccc(O)cc4)nc32)CC1	IC50 [5]: > 5000 nM; IC50 (PC-3): > 5000 nM; IC50 [4]: > 5000 nM
2880	O=c1[nH]c2ncc(-c3ccc(O)cc3)nc2n1C1CCCCC1	
> 10000	O=c1[nH]c2ncc(-c3ccc(-n4ccnn4)cc3)nc2n1CC1CCCCC1	
	CO[C@H]1C[C@@H]2CC[C@@H](C)[C@@](O)(O2)C(=O)C(=O)N2CCCC[C@H]2C(=O)O[C@H]([C@H](C)C[C@@H]2CC[C@@H](O)[C@H](OC)C2)CC(=O)[C@H](C)/C=C(\C)[C@@H](O)[C@@H](OC)C(=O)[C@H](C)C[C@H](C)/C=C/C=C/C=C/1C [SIROLIMUS]	IC50 (PC-3): < 10 nM
1590	O=c1[nH]c2ncc(-c3ccc(-c4nn[nH]n4)cc3)nc2n1CC1CCCCC1	
2380	COCCn1c(=O)[nH]c2ncc(-c3ccc(O)cc3)nc21	
179	NC(=O)[C@H]1CC[C@@H](n2c(=O)[nH]c3ncc(-c4ccc(O)cc4)nc32)CC1	IC50 [5]: > 5000 nM; IC50 (PC-3): > 5000 nM; IC50 [4]: > 5000 nM
14100	CN1CCC(Cn2c(=O)[nH]c3ncc(-c4ccc(O)cc4)nc32)CC1	
> 10000	COC(=O)c1ccc(-c2cnc3[nH]c(=O)n(CC4CCCCC4)c3n2)cc1	
	O=c1[nH]c2ncc(-c3ccc(-c4ncc[nH]4)cc3)nc2n1CC1CCOCC1	IC50 (PC-3): 916 nM
1050	O=c1[nH]c2ncc(-c3ccc(O)cc3)nc2n1Cc1cccc(O)c1	
120	CNC(=O)c1ccc(-c2cnc3[nH]c(=O)n(CC4CCCCC4)c3n2)cc1	
21	O=c1[nH]c2ncc(-c3ccc4[nH]ccc4c3)nc2n1CC1CCOCC1	IC50 [5]: 50 nM; IC50 (PC-3): 602 nM; IC50 [4]: 231 nM; IC50 [3]: > 30 µM
30	O=c1[nH]c2ncc(-c3ccc4[nH]cnc4c3)nc2n1CC1CCOCC1	
